Assay results published in PMC12190736, “Development and In Vitro Characterization of [^3H]GMC-058 as Radioligand for Imaging Parkinsonian-Related Proteinopathies” (Cells, 2025).

Test system: fresh-frozen human brain sections
Test: Autoradiography on fresh-frozen brain tissue sections
Format: binding
Details: for NSB: 5 µM GMC044; for Specific binding relative to displaceable binding in controls: on average
Protocol: Selections of frozen human sections (described in Table 2 and Table 3) were used for binding autoradiography. Sections were first pre-incubated for 20 min in binding buffer [50 mM Tris-HCl (pH 7.4), 120 mM NaCl, 5 mM KCl, 2 mM CaCl2, 1 mM MgCl2, and 0.1% BSA] and then incubated with [^3H]GMC-058 (specific activity 22 Ci/mmol); [^3H]GMC-073 (specific activity 23.4 Ci/mmol); or […] in binding buffer for 180 min at RT. In the pilot autoradiography experiment (Figure A1). [^3H]GMC-058 was tested at 25 and 50 nM, while [^3H]GMC-073 and [^3H]GMC-098 were each tested at 10 and 20 nM. For all other autoradiography in fresh-frozen tissue sections, 25 nM [^3H]GMC-058 was used. To determine NSB, adjacent brain sections were incubated with [^3H]-tracer mixed with 5 μM of unlabeled GMC-044. The binding reaction was stopped with two 10 min washes in washing buffer [50 mM Tris-HCl (pH 7.4) at 4 °C] and a brief dip in cold distilled water. Slides were allowed to air-dry before being placed under storage phosphor screens (Fujifilm Plate BAS-TR2025, Fujifilm, Tokyo, Japan) in imaging cassettes for 90 h together with ART0123C and ART0123B tritium standards on glass slides (American Radiolabeled Chemicals Inc., St. Louis, MO, USA). Storage phosphor screens were scanned using an Amersham Typhoon FLA-9500 phosphor imaging scanner (Cytiva, Marlborough, MA, USA), and the resulting images were analyzed using Multi Gauge 3.2 phosphor imager software (Fujifilm, Tokyo, Japan) for ROI delimitation, density calibration, and quantification. Quantitative binding data from duplicates of the total, and NSB were plotted and analyzed using graphPad Prism v10 (GraphPad Software, Boston, MA, USA). Specific binding was determined by subtracting the non-specific signal from the total signal. The toluidine blue staining of adjacent sections was used to obtain anatomical references for white- and gray-matter ROI selection. Care was taken not to include artifact signals in the ROIs analyzed. These artifacts were identified as randomly placed punctate signals appearing in both total and NSB images, and they often coincided with small folds or tears in the tissue sections.

[1] = 25 nM radioligand, gray matter of cingulate cortex, control C03
[2] = 25 nM, PD1, cingulate gyrus, GM
[3] = 25 nM, PD1, cingulate gyrus, WM
[4] = 25 nM, PD2, cingulate gyrus, GM
[5] = 25 nM, PD2, cingulate gyrus, WM
[6] = 25 nM, PD3, cingulate gyrus, GM
[7] = 25 nM, PD3, cingulate gyrus, WM
[8] = 25 nM, non-dementia control C01, cingulate gyrus, GM
[9] = 25 nM, non-dementia control C01, cingulate gyrus, WM
[10] = 25 nM, non-dementia control C02, cingulate gyrus, GM
[11] = 25 nM, non-dementia control C02, cingulate gyrus, WM
[12] = 25 nM, non-dementia control C03, cingulate gyrus, GM
[13] = 25 nM, non-dementia control C03, cingulate gyrus, WM
[14] = 50 nM radioligand, gray matter of cingulate cortex, control C03

[3H]c1cc(N2CCN(c3ccc(NC(=O)C(C)(C)C)cc3)CC2)ccc1OC [[^3H]GMC-058, N-(4-(4-(4-methoxy-[3-3H]phenyl)piperazin-1-yl)phenyl)pivalamide]
NSB [1]: 37.6 ± 3.8 fmol/mg tissue equivalent | Total Minus NSB [1]: 20 fmol/mg | Total binding [1]: 57.6 ± 1.8 fmol/mg tissue equivalent | Specific Binding (25 nM, CBD1 block 1, SFG, GM): 50 fmol/mg tissue equivalent | Specific Binding (25 nM, CBD1 block 1, SFG, WM): 29 fmol/mg tissue equivalent | Specific Binding (25 nM, CBD1 block 2, SFG, GM): 32 fmol/mg tissue equivalent | Specific Binding (25 nM, CBD1 block 2, SFG, WM): 130 fmol/mg tissue equivalent | Specific binding relative to displaceable binding in controls (25 nM, CBD, gray matter of superior frontal gyrus): three-fold | NSB (5 µM GMC044) (25 nM, MSA1, cerebellum, GM): 27.4 fmol/mg tissue equivalent | Total Minus NSB (25 nM, MSA1, cerebellum, GM): 19.5 fmol/mg tissue equivalent | Total binding (25 nM, MSA1, cerebellum, GM): 46.9 fmol/mg tissue equivalent | NSB (5 µM GMC044) (25 nM, MSA1, cerebellum, WM): 33.3 fmol/mg tissue equivalent | Total Minus NSB (25 nM, MSA1, cerebellum, WM): 16.8 fmol/mg tissue equivalent | Total binding (25 nM, MSA1, cerebellum, WM): 50.1 fmol/mg tissue equivalent | NSB (5 µM GMC044) (25 nM, MSA2, cerebellum, GM): 19.9 fmol/mg tissue equivalent | Total Minus NSB (25 nM, MSA2, cerebellum, GM): 10.3 fmol/mg tissue equivalent | Total binding (25 nM, MSA2, cerebellum, GM): 30.3 fmol/mg tissue equivalent | NSB (5 µM GMC044) (25 nM, MSA2, cerebellum, WM): 27.7 fmol/mg tissue equivalent | Total Minus NSB (25 nM, MSA2, cerebellum, WM): 24.8 fmol/mg tissue equivalent | Total binding (25 nM, MSA2, cerebellum, WM): 52.5 fmol/mg tissue equivalent | Specific Binding (25 nM, MSA3, cerebellum, GM): 26 fmol/mg tissue equivalent | Specific Binding (25 nM, MSA3, cerebellum, WM): 21 fmol/mg tissue equivalent | Specific Binding (25 nM, MSA4, cerebellum, GM): 23 fmol/mg tissue equivalent | Specific Binding (25 nM, MSA4, cerebellum, WM): 49 fmol/mg tissue equivalent | Specific Binding (25 nM, NDE C03, cingulate cortex, GM): 15 fmol/mg tissue equivalent | Specific Binding (25 nM, NDE C03, cingulate cortex, WM): −2 fmol/mg tissue equivalent | Specific Binding (25 nM, NDE C04, caudate, GM): 8 fmol/mg tissue equivalent | Specific Binding (25 nM, NDE C04, caudate, WM): −1 fmol/mg tissue equivalent | Specific Binding (25 nM, NDE C04, globus pallidus, GM): 10 fmol/mg tissue equivalent | Specific Binding (25 nM, NDE C04, globus pallidus, WM): 0 fmol/mg tissue equivalent | Specific Binding (25 nM, NDE Co4, putamen, GM): 12 fmol/mg tissue equivalent | Specific Binding (25 nM, NDE Co4, putamen, WM): 4 fmol/mg tissue equivalent | NSB (5 µM GMC044) [2]: 42.3 fmol/mg tissue equivalent | Total Minus NSB [2]: 13.3 fmol/mg tissue equivalent | Total binding [2]: 55.6 fmol/mg tissue equivalent | NSB (5 µM GMC044) [3]: 50.6 fmol/mg tissue equivalent | Total Minus NSB [3]: 1.9 fmol/mg tissue equivalent | Total binding [3]: 52.5 fmol/mg tissue equivalent | NSB (5 µM GMC044) [4]: 17.1 fmol/mg tissue equivalent | Total Minus NSB [4]: −0.9 fmol/mg tissue equivalent | Total binding [4]: 16.2 fmol/mg tissue equivalent | NSB (5 µM GMC044) [5]: 53.7 fmol/mg tissue equivalent | Total Minus NSB [5]: 1.6 fmol/mg tissue equivalent | Total binding [5]: 55.4 fmol/mg tissue equivalent | NSB (5 µM GMC044) [6]: 42.0 fmol/mg tissue equivalent | Total Minus NSB [6]: 17.2 fmol/mg tissue equivalent | Total binding [6]: 59.3 fmol/mg tissue equivalent | NSB (5 µM GMC044) [7]: 47.1 fmol/mg tissue equivalent | Total Minus NSB [7]: 8.3 fmol/mg tissue equivalent | Total binding [7]: 55.4 fmol/mg tissue equivalent | Specific Binding (25 nM, PSP1, GP, GM): 102 fmol/mg tissue equivalent | Specific Binding (25 nM, PSP1, GP, WM): 32 fmol/mg tissue equivalent | Specific Binding (25 nM, PSP2, GP, GM): 118 fmol/mg tissue equivalent | Specific Binding (25 nM, PSP2, GP, WM): −1 fmol/mg tissue equivalent | Specific binding relative to displaceable binding in controls (25 nM, PSP, gray matter of globus pallidus): ten-fold | Specific binding versus controls (25 nM, cingulate cortex of controls and PD patients, cerebellum of MSA patients): did not show clear evidence of specific binding higher than the displaceable (off-target) binding in controls | NSB (5 µM GMC044) [8]: 60.3 fmol/mg tissue equivalent | Total Minus NSB [8]: −3.5 fmol/mg tissue equivalent | Total binding [8]: 56.8 fmol/mg tissue equivalent | NSB (5 µM GMC044) [9]: 59.8 fmol/mg tissue equivalent | Total Minus NSB [9]: −2.9 fmol/mg tissue equivalent | Total binding [9]: 56.9 fmol/mg tissue equivalent | NSB (5 µM GMC044) [10]: 24.6 fmol/mg tissue equivalent | Total Minus NSB [10]: 19.8 fmol/mg tissue equivalent | Total binding [10]: 44.3 fmol/mg tissue equivalent | NSB (5 µM GMC044) [11]: 31.8 fmol/mg tissue equivalent | Total Minus NSB [11]: 13.6 fmol/mg tissue equivalent | Total binding [11]: 45.3 fmol/mg tissue equivalent | NSB (5 µM GMC044) [12]: 28.6 fmol/mg tissue equivalent | Total Minus NSB [12]: 16.7 fmol/mg tissue equivalent | Total binding [12]: 45.3 fmol/mg tissue equivalent | NSB (5 µM GMC044) [13]: 39.0 fmol/mg tissue equivalent | Total Minus NSB [13]: 9.7 fmol/mg tissue equivalent | Total binding [13]: 48.7 fmol/mg tissue equivalent | Specific binding relative to average displaceable binding in gray matter of controls (25 nM, two MSA cases, cerebellar gray matter): two-fold higher | Average specific binding (25 nM, white matter of MSA and CBD cases): 35 to 80 fmol/mg | Specific Binding (25 nM, white matter of control cases): No specific binding | NSB [14]: 74.6 ± 4.1 fmol/mg tissue equivalent | Total Minus NSB [14]: 40 fmol/mg | Total binding [14]: 114.1 ± 9.3 fmol/mg tissue equivalent | Binding displaced by GMC-044 (5 µM GMC-044, control cingulate cortex tissue): ~ 65% | Binding in control tissue (cingulate cortex of healthy controls): negligible binding
